Reference: patent publication US20240262823A1, “PHARMACEUTICALLY ACCEPTABLE SALT OF PYRAZOLOHETEROARYL DERIVATIVE AND CRYSTAL FORM THEREOF” (JIANGSU HENGRUI PHARMACEUTICALS CO., LTD., priority 2021, published 2024)

What was measured:
[1] = Long-term/accelerated stability test of crystalline salt forms in sealed aluminum foil bags; format: physicochemical; details: for Crystalline form: after storage
Method: The crystalline form α of mesylate, the crystalline form α of sulfate, the crystalline form I of maleate, the crystalline form a of p-toluenesulfonate and the crystalline form a of oxalate were stored in sealed aluminum foil bags and subjected to stability test under the conditions of −20° C., 4° C., 25° C./60% RH and 40° C./75% RH.

[2] = Pharmacokinetic study in rats after intragastric administration; format: in vivo; details: both sexes, rat, plasma, po, SD rats, 2 mg/kg
Method: The drug concentrations in the plasma of the test animals (rats) at different time points after intragastric administration of the compound of Example 1 were determined by an LC/MS/MS method. The pharmacokinetic behavior in rats of the compound disclosed herein was studied and its pharmacokinetic profile was evaluated.
12 healthy adult SD rats (half male and half female; purchased from Vital River) were evenly divided into 3 groups of 4.
A certain amount of the compound was added to a mixed solvent containing 5% of DMSO, 5% of Tween 80 and 90% of normal saline to obtain a colorless and clear solution.
SD rats were intragastrically administered with the compound after fasting overnight, at a dose of 2 mg/kg and a volume of 10.0 mL/kg.
Rats were intragastrically administered with the compound of Examples 1. 0.2 mL of blood was collected from the orbit pre-dose and at 0.25, 0.5, 1.0, 2.0, 4.0, 6.0, 8.0, 11.0 and 24.0 h post-dose. The blood samples were transferred to EDTA-K2kk anticoagulation tubes, centrifuged at 4° C. and 11000 rpm for 5 min to separate out plasma. The plasma samples were stored at −20° C. The rats were fed 2 h after administration.
The plasma concentration of the compound in rats after intragastric administration was determined: 25 μL of rat plasma at each time point post-dose was mixed with 50 μL of internal standard and 175 μL of acetonitrile; the mixture was vortexed for 5 min and centrifuged for 10 min at 4000 rpm. 1 μL of supernatant was taken for LC/MS/MS analysis.

LoVo cells = test: Cell proliferation assay (intracellular ATP content, CellTiter-Glo); format: cell-based, human; details: 3 days
Text: The following method evaluates the inhibitory effect of the compounds disclosed herein on the proliferation of LoVo cells via IC50 by measuring the intracellular ATP content. The experimental method was briefly described as follows:
• 1. LoVo, human colon cancer cells (Cobioer, Nanjing, CBP60032) • 2. Fetal bovine serum (GIBCO, 10091-148) • 3. F-12K Medium (Gibco, 21127030) • 4. CellTite-Glo reagent (Promega, G7573) • 5. 96-well cell culture plate (Corning, 3903) • 6. Pancreatin (Invitrogen, 25200-072) • 7. Microplate reader (BMG, PHERAsta) • 8. Cell counter (Countstar, Shanghai, IC1000)
LoVo cells were cultured in an F-12K culture medium containing 10% of FBS, and passaged twice or thrice a week in a passage ratio of 1:3 or 1:5. During passage, cells were digested by pancreatin, transferred to a centrifuge tube, and centrifuged for 3 min at 1200 rpm. The supernatant was discarded, and fresh culture medium was added to resuspend the cells. To a 96-well cell culture plate, 90 μL of the cell suspension was added at a density of 3.88×10^4 cells/mL. To peripheral wells of the 96-well plate, only 100 μL of complete medium was added. […]
The test samples were each diluted to 2 mM in DMSO and serially 3-fold diluted to the 10th concentration. […] The chemiluminescence signals were read by a PHERAstar system, and the data were processed by GraphPad software.

ATR enzyme = ATR enzyme (Homo sapiens (Human), UniProt Q13535); test: Inhibitory effect on ATR enzyme (HTRF, phospho-p53); format: biochemical
Text: The following method was used to determine the inhibitory effect of the compounds disclosed herein on ATR enzyme. The experimental method was briefly described as follows:
• 1. ATR enzyme (Eurofins Pharma Discovery Services, 14-953-M) • 2. GST-tag P53 protein (Eurofins Pharma Discovery Services, 14-952-M) • 3. 384-well plate (Thermo Scientific, 267462) • 4. U-shaped bottom 96-well plate (Corning, 3795) • 5. MAb Anti-phospho p53-Eu cryptate (Cisbio, 61P08KAE) • 6. MAb Anti GST-d2 (Cisbio, 61GSTDLF) • 7. ATP solution (Promega, V916B) • 8. EDTA (Thermo Scientific, AM9260G) • 9. HEPES (Gibco, 15630-080) • 10. Microplate reader (BMG, PHERAsta)
1 nM ATR enzyme, 50 nM P53 protein, 7.435 μM ATP and small molecule compounds of different concentrations (serially 3-fold diluted from 1 μM to the 11th concentration) were mixed and incubated at room temperature for 2 h. A terminating buffer (12.5 mM HEPES, 250 mM EDTA) was added. The mixture was well mixed before 0.42 ng/well of mAb anti-phospho p53-Eu cryptate and 25 ng/well of mAb anti GST-d2 were added. The mixture was incubated overnight at room temperature, and the fluorescence signals at 620 nm and 665 nm were detected using a PHERAstar system. Data were processed using GraphPad software.

[3] = long-term/accelerated stability test, overall
[4] = Initial, printed in the 25° C./60% RH row

ATR enzyme, sequence (Q13535 whole entry): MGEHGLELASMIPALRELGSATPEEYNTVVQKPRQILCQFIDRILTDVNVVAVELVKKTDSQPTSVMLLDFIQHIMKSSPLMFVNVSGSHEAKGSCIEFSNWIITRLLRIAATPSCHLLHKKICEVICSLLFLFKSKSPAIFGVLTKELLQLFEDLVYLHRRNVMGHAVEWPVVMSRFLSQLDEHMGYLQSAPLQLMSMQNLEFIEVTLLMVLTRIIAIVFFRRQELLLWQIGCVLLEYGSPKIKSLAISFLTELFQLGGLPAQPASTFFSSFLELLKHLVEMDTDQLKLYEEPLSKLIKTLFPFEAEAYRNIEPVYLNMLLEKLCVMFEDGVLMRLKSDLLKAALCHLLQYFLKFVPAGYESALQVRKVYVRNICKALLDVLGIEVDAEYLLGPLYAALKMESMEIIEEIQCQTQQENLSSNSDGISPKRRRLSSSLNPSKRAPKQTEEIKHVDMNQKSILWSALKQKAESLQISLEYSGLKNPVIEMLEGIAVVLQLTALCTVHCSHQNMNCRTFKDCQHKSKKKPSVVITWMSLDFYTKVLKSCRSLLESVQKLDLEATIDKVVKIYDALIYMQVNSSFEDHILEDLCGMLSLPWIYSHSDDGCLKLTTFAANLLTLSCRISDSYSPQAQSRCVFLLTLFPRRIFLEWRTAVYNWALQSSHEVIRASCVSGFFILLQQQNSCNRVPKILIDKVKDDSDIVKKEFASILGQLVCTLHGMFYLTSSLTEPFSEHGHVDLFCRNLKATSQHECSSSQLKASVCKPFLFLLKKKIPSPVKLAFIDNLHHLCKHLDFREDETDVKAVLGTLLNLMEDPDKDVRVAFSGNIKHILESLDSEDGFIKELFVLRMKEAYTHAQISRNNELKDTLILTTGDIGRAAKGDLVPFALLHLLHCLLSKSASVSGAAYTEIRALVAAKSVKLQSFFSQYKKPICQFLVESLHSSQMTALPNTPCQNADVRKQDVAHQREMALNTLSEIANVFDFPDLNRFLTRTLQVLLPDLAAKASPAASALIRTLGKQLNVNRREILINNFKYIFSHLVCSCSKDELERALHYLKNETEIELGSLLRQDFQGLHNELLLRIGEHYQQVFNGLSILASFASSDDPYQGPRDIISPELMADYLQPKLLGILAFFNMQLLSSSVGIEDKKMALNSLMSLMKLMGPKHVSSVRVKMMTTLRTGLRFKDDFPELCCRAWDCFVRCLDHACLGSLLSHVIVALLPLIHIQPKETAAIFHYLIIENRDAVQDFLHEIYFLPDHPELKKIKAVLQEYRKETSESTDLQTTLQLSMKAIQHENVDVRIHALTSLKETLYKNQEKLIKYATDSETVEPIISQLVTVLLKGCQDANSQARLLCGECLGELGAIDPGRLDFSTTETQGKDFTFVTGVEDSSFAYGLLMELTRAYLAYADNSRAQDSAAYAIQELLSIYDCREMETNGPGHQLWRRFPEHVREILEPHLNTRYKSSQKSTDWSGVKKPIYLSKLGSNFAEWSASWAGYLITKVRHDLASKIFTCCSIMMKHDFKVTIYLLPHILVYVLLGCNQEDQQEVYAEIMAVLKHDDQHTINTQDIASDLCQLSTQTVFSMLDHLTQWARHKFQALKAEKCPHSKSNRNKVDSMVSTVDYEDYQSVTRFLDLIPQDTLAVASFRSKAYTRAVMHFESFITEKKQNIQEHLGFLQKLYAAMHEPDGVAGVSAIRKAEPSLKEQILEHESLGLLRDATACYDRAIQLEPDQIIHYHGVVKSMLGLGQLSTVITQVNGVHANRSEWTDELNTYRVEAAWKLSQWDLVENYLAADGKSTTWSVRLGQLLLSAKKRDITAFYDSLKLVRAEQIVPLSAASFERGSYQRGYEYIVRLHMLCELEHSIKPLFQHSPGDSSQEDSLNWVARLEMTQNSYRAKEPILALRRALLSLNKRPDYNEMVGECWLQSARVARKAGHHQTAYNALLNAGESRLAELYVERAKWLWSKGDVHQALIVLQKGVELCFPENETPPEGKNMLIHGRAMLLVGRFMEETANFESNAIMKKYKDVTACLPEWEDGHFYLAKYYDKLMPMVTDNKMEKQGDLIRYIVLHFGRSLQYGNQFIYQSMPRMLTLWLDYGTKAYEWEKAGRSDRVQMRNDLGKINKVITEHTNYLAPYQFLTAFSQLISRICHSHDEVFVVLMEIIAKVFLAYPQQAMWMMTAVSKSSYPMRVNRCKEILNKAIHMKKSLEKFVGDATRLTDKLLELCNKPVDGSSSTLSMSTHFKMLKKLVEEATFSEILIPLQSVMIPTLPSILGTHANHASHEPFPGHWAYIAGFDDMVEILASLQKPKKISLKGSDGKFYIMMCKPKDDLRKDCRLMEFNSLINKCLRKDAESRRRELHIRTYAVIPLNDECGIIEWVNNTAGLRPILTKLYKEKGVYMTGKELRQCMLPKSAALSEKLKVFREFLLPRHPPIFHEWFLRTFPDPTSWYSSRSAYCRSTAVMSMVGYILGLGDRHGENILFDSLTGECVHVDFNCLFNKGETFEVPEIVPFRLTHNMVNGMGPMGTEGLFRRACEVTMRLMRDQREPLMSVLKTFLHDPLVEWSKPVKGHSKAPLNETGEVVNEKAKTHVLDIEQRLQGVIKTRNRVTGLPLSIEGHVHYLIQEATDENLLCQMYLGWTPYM
ATR enzyme, sequence (Q8WXE1 whole entry partner): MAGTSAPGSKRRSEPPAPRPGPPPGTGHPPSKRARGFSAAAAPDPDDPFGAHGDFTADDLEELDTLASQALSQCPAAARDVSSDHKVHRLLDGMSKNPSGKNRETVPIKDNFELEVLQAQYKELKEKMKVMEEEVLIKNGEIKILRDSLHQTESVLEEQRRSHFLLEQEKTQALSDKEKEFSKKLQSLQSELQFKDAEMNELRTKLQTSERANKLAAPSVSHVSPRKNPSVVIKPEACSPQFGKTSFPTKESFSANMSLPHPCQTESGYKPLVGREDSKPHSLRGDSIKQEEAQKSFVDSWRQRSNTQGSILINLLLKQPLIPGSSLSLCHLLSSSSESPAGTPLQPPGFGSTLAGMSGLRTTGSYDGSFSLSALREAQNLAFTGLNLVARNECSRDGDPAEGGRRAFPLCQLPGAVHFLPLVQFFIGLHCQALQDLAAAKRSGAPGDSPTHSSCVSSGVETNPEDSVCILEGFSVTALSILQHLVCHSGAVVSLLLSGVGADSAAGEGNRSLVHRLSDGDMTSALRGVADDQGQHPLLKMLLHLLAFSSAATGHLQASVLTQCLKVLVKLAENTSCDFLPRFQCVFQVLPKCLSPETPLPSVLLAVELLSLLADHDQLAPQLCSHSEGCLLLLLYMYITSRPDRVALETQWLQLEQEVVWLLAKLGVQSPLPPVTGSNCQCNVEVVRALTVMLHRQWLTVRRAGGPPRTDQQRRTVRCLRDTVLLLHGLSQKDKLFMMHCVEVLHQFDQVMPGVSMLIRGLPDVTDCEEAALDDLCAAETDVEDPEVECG

Structure (SMILES)	Purity (%) ([1]; 4° C., 1 month)	Purity (%) ([1]; 4° C., 2 months)	Purity (%) ([1]; 4° C., 3 months)	Crystalline form ([1]; 4° C.)	Purity (%) ([1]; 25° C./60% RH, 1 month)	Purity (%) ([1]; 25° C./60% RH, 2 months)	Purity (%) ([1]; 25° C./60% RH, 3 months)	Crystalline form ([1]; 25° C./60% RH)	Chemical stability (in words) ([1]; 40° C. and 75% RH)	Purity (%) ([1]; 40° C./75% RH, 1 month)	Purity (%) ([1]; 40° C./75% RH, 2 months)	Purity (%) ([1]; 40° C./75% RH, 3 months)	Crystalline form ([1]; 40° C./75% RH)	Purity (%) ([1]; Initial)	Purity (%) ([1]; −20° C., 1 month)	Purity (%) ([1]; −20° C., 2 months)	Purity (%) ([1]; −20° C., 3 months)	Crystalline form ([1]; −20° C.)	Chemical stability (in words) [1, 3]	Purity (%) [1, 4] [%]	also measured
CC1COCCN1c1cc(C(C)(C)C#N)c2c(n1)c(-c1cc[nH]n1)nn2C.CC1COCCN1c1cc(C(C)(C)C#N)c2c(n1)c(-c1cc[nH]n1)nn2C.O=C(O)C(=O)O (stereo not shown) [Crystalline form a of oxalate]	99.54	99.60	99.55	Unchanged	99.53	99.58	99.52	Unchanged	–	99.40	99.39	99.40	Unchanged	99.57	99.57	99.51	99.46	Unchanged	relatively stable	–	–
CC1COCCN1c1cc(C(C)(C)C#N)c2c(n1)c(-c1cc[nH]n1)nn2C.Cc1ccc(S(=O)(=O)O)cc1 (stereo not shown) [Crystalline form a of p-toluenesulfonate]	98.13	98.19	98.17	Unchanged	98.41	98.07	98.18	Unchanged	–	97.31	96.90	95.57	Unchanged	98.69	98.46	98.46	98.66	Unchanged	slightly poor stability	–	–
C[C@@H]1COCCN1c1cc(C(C)(C)C#N)c2c(n1)c(-c1cc[nH]n1)nn2C [Example 1, (R)-2-methyl-2-(1-methyl-5-(3-methylmorpholino)-3-(1H-pyrazol-3-yl)-1H-pyrazolo[4,3-b]pyridin-7-yl)propanenitrile]	–	–	–	–	–	–	–	–	–	–	–	–	–	–	–	–	–	–	–	–	Vd/F ([2]; read-out: Apparent volume of distribution Vz/F): 2.06 ± 1.22 L/kg; AUC ([2]; read-out: Area under curve AUC): 3200 ± 2750 ng·h/mL; CL/F ([2]; read-out: Clearance CL/F): 17.7 ± 12.4 mL/min/kg; half-life ([2]; read-out: Half-life T1/2 (converted)): 2.62 ± 2.48 h; Cmax ([2]; read-out: Plasma concentration Cmax): 1110 ± 394 ng/mL; MRT ([2]; read-out: Residence time MRT): 3.08 ± 2.31 h; Max Inhibition (%) (LoVo cells): 93%; IC50 (ATR enzyme; 1 nM ATR enzyme, 50 nM P53 protein, 7.435 μM ATP, 2 h, read-out: IC50 for ATR enzyme inhibition): 3 nM; Max Inhibition (%) (ATR enzyme; ATR enzyme): 100%

Further lines, with some results ahead:

Purity (%) ([1]; 4° C., 1 month)	Purity (%) ([1]; 4° C., 2 months)	Purity (%) ([1]; 4° C., 3 months)	Crystalline form ([1]; 4° C.)	Purity (%) ([1]; 25° C./60% RH, 1 month)	Purity (%) ([1]; 25° C./60% RH, 2 months)	Purity (%) ([1]; 25° C./60% RH, 3 months)	Crystalline form ([1]; 25° C./60% RH)	Chemical stability (in words) ([1]; 40° C. and 75% RH)	Purity (%) ([1]; 40° C./75% RH, 1 month)	Purity (%) ([1]; 40° C./75% RH, 2 months)	Purity (%) ([1]; 40° C./75% RH, 3 months)	Crystalline form ([1]; 40° C./75% RH)	Purity (%) ([1]; Initial)	Purity (%) ([1]; −20° C., 1 month)	Purity (%) ([1]; −20° C., 2 months)	Purity (%) ([1]; −20° C., 3 months)	Crystalline form ([1]; −20° C.)	Chemical stability (in words) [1, 3]	Purity (%) [1, 4] [%]	Structure (SMILES)	also measured
98.99	98.99	99.00	Unchanged	98.84	98.82	98.77	Unchanged	slightly degraded	98.59	98.26	98.30	Unchanged	98.97	99.04	99.00	99.00	Unchanged	–	–	CC1COCCN1c1cc(C(C)(C)C#N)c2c(n1)c(-c1cc[nH]n1)nn2C.O=C(O)C=CC(=O)O (stereo not shown) [Crystalline form I of maleate]	–
98.66	98.65	98.64	Unchanged	98.53	98.54	98.62	Unchanged	slightly degraded	97.00	97.56	95.66	Unchanged	98.72	98.73	98.69	98.61	Unchanged	–	98.49	CC1COCCN1c1cc(C(C)(C)C#N)c2c(n1)c(-c1cc[nH]n1)nn2C.CS(=O)(=O)O (stereo not drawn) [Crystalline form α of mesylate]	–
97.07	97.29	–	Unchanged	93.00	92.90	–	Unchanged	–	89.37	83.97	–	Unchanged	97.55	97.62	97.56	–	Unchanged	slightly poor stability	97.70	CC1COCCN1c1cc(C(C)(C)C#N)c2c(n1)c(-c1cc[nH]n1)nn2C.O=S(=O)(O)O (stereo not drawn) [Crystalline form α of sulfate]	–
